Key:
[1] = Selectivity index, ratio of IC50 for cytotoxicity against human WI-38 cells to IC50 for antiproliferative activity against human HepG2 cells; type: toxicity, cell-based; settings: WI-38 cells and HepG2 cells, read-out: Ratio IC50
PC-3 = experiment: Antiproliferative activity against human PC-3 cells assessed as inhibition of cell growth incubated for 24 hrs by MTT assay; type: functional, cell-based; settings: PC-3, 24 h
[2] = Selectivity index, ratio of IC50 for cytotoxicity against human WI-38 cells to IC50 for antiproliferative activity against human HCT-116 cells; type: toxicity, cell-based; settings: WI-38 cells and HCT-116 cells, read-out: Ratio IC50
[3] = Selectivity index, ratio of IC50 for cytotoxicity against human WI-38 cells to IC50 for antiproliferative activity against human HeLa cells; type: toxicity, cell-based; settings: WI-38 cells and HeLa cells, read-out: Ratio IC50
[4] = Cytotoxicity against human WI-38 cells assessed as inhibition of cell growth incubated for 24 hrs by MTT assay; type: toxicity, cell-based
HeLa [5] = experiment: Antiproliferative activity against human HeLa cells assessed as inhibition of cell growth incubated for 24 hrs by MTT assay; type: functional, cell-based
HEp-2 = experiment: Antiproliferative activity against human HEp-2 cells assessed as inhibition of cell growth incubated for 24 hrs by MTT assay; type: functional, cell-based; settings: HEp-2, 24 h
MCF7 [6] = experiment: Antiproliferative activity against human MCF7 cells assessed as inhibition of cell growth incubated for 24 hrs by MTT assay; type: functional, cell-based; settings: MCF7, 24 h
HepG2 = experiment: Antiproliferative activity against human HepG2 cells assessed as inhibition of cell growth incubated for 24 hrs by MTT assay; type: functional, cell-based; settings: HepG2, 24 h
[7] = Selectivity index, ratio of IC50 for cytotoxicity against human WI-38 cells to IC50 for antiproliferative activity against human HEp-2 cells; type: toxicity, cell-based; settings: WI-38 cells and HEp-2 cells, read-out: Ratio IC50
HCT-116 = experiment: cells; settings: Homo sapiens, HCT-116, 24 h
Description: Antiproliferative activity against human HCT-116 cells assessed as inhibition of cell growth incubated for 24 hrs by MTT assay

[8] = Selectivity index, ratio of IC50 for cytotoxicity against human WI-38 cells to IC50 for antiproliferative activity against human PC-3 cells; type: toxicity, cell-based; settings: WI-38 cells and PC-3 cells, read-out: Ratio IC50
[9] = Selectivity index, ratio of IC50 for cytotoxicity against human WI-38 cells to IC50 for antiproliferative activity against human MCF7 cells; type: toxicity, cell-based; settings: WI-38 cells and MCF7 cells, read-out: Ratio IC50
[10] = molecular target: Epidermal growth factor receptor (Homo sapiens, UniProt P00533); experiment: Inhibition of EGFR (unknown origin) by fluorimetric assay
Dihydrofolate reductase = molecular target: T1, Dihydrofolate reductase (Homo sapiens, UniProt P00374); experiment: Inhibition of DHFR (unknown origin) incubated for 2 to 5 mins by absorbance based analysis
T1 sequence (P00374 whole entry): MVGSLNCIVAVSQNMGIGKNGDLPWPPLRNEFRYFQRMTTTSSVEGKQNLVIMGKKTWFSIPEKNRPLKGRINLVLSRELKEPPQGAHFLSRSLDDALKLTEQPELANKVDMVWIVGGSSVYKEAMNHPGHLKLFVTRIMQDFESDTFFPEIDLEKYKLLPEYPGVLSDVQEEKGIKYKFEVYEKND

HeLa [11] = experiment: Induction of apoptosis in human HeLa cells assessed as late apoptotic cells incubated for 24 hrs by annexin V-FITC/PI staining based flow cytometry analysis (reference value: 0.16%); type: functional
MCF7 [12] = experiment: Induction of apoptosis in human MCF7 cells assessed as total apoptotic cells incubated for 24 hrs by annexin V-FITC/PI staining based flow cytometry analysis (reference value: 2.11%); type: functional
HeLa [13] = experiment: Induction of cell cycle arrest in human HeLa cells assessed as cell debris incubated for 24 hrs by PI staining based flow cytometry analysis (reference value: 2.13%); type: functional
HeLa [14] = experiment: Induction of cell cycle arrest in human HeLa cells assessed as accumulation of cells at G0/G1 phase incubated for 24 hrs by PI staining based flow cytometry analysis (reference value: 61.08%); type: functional
HeLa [15] = experiment: Induction of cell cycle arrest in human HeLa cells assessed as accumulation of cells at G2/M phase incubated for 24 hrs by PI staining based flow cytometry analysis (reference value: 10.38%); type: functional
HeLa [16] = experiment: Induction of cell cycle arrest in human HeLa cells assessed as accumulation of cells at pre-G1 phase incubated for 24 hrs by PI staining based flow cytometry analysis (reference value: 1.85%); type: functional
[17] = Toxicity in Swiss albino mouse implanted with mouse Ehrlich cells assessed as mean body weight at 10 mg/kg, iv administered once daily for 20 days (reference value: 30 g); type: organism-based; settings: in vivo, 480 h, time 20 day
Ehrlich = experiment: Antitumor activity against mouse Ehrlich cells implanted in Swiss albino mouse assessed as reduction in tumor volume at 10 mg/kg, iv administered once daily for 20 days relative to control; type: functional; set-up: scale not given: the % may be the effect or the level left; settings: time 20 day
HeLa [18] = experiment: Induction of apoptosis in human HeLa cells assessed as necrotic cells incubated for 24 hrs by annexin V-FITC/PI staining based flow cytometry analysis (reference value: 1.15%); type: functional
MCF7 [19] = experiment: Induction of cell cycle arrest in human MCF7 cells assessed as cell aggregates incubated for 24 hrs by PI staining based flow cytometry analysis (reference value: 1.75%); type: functional
MCF7 [20] = experiment: Induction of apoptosis in human MCF7 cells assessed as late apoptotic cells incubated for 24 hrs by annexin V-FITC/PI staining based flow cytometry analysis (reference value: 0.21%); type: functional
HeLa [21] = experiment: Induction of cell cycle arrest in human HeLa cells assessed as cell aggregates incubated for 24 hrs by PI staining based flow cytometry analysis (reference value: 1.46%); type: functional
HeLa [22] = experiment: Induction of apoptosis in human HeLa cells assessed as total apoptotic cells incubated for 24 hrs by annexin V-FITC/PI staining based flow cytometry analysis (reference value: 1.85%); type: functional
MCF7 [23] = experiment: Induction of cell cycle arrest in human MCF7 cells assessed as accumulation of cells at G0/G1 phase incubated for 24 hrs by PI staining based flow cytometry analysis (reference value: 52.61%); type: functional
MCF7 [24] = experiment: Induction of apoptosis in human MCF7 cells assessed as early apoptotic cells incubated for 24 hrs by annexin V-FITC/PI staining based flow cytometry analysis (reference value: 0.62%); type: functional
MCF7 [25] = experiment: Induction of cell cycle arrest in human MCF7 cells assessed as accumulation of cells at S phase incubated for 24 hrs by PI staining based flow cytometry analysis (reference value: 35.19%); type: functional
HeLa [26] = experiment: Induction of cell cycle arrest in human HeLa cells assessed as accumulation of cells at S phase incubated for 24 hrs by PI staining based flow cytometry analysis (reference value: 28.54%); type: functional
MCF7 [27] = experiment: Induction of cell cycle arrest in human MCF7 cells assessed as accumulation of cells at pre-G1 phase incubated for 24 hrs by PI staining based flow cytometry analysis (reference value: 2.11%); type: functional
[28] = Toxicity in Swiss albino mouse implanted with mouse Ehrlich cells assessed as reduction in body weight gain at 10 mg/kg, iv administered once daily for 20 days relative to control; type: organism-based; set-up: scale not given: the % may be the effect or the level left; settings: in vivo, 480 h, time 20 day
MCF7 [29] = experiment: Induction of apoptosis in human MCF7 cells assessed as necrotic cells incubated for 24 hrs by annexin V-FITC/PI staining based flow cytometry analysis (reference value: 1.28%); type: functional
MCF7 [30] = experiment: Induction of cell cycle arrest in human MCF7 cells assessed as cell debris incubated for 24 hrs by PI staining based flow cytometry analysis (reference value: 2.12%); type: functional
MCF7 [31] = experiment: Induction of cell cycle arrest in human MCF7 cells assessed as accumulation of cells at G2/M phase incubated for 24 hrs by PI staining based flow cytometry analysis (reference value: 12.2%); type: functional
HeLa [32] = experiment: Induction of apoptosis in human HeLa cells assessed as early apoptotic cells incubated for 24 hrs by annexin V-FITC/PI staining based flow cytometry analysis (reference value: 0.54%); type: functional

Chain of Epidermal growth factor receptor (P00533 whole entry): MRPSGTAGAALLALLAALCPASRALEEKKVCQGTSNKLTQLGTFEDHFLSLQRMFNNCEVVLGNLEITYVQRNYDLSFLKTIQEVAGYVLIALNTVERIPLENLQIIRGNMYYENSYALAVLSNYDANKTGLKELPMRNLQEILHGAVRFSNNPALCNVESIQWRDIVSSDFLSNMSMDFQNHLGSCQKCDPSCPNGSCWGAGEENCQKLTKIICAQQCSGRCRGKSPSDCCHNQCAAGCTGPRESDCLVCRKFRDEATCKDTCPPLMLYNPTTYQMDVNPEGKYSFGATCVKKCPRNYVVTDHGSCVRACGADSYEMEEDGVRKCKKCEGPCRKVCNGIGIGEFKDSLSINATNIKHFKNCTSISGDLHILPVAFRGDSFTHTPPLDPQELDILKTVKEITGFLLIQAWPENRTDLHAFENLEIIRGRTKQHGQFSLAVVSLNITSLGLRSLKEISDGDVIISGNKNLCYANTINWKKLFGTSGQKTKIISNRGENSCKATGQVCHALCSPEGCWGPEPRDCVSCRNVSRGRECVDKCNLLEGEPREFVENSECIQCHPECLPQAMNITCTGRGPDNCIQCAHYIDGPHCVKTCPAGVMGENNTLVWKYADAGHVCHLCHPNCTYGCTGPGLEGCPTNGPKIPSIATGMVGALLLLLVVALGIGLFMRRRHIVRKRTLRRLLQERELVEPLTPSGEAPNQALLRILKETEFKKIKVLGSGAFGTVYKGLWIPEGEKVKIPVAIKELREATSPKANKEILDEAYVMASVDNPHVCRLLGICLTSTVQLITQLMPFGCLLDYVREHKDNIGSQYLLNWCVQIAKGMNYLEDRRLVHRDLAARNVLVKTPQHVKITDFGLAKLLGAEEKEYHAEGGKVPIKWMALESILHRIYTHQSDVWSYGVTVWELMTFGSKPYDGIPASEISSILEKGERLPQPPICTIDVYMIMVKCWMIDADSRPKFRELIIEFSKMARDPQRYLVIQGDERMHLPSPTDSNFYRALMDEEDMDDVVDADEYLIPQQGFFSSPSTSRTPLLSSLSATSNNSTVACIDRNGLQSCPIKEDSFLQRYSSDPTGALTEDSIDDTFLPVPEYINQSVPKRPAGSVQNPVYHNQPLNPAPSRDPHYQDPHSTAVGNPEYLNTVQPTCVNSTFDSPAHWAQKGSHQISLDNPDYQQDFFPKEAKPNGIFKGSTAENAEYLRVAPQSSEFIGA

SMILES: CC(=O)Nc1nc(C(=O)NNC(=O)CCN2CCN(C)CC2)cs1
- selectivity ratio [1]: 4.76
- IC50 (PC-3): 14.3 µM
- selectivity ratio [2]: 2.54
- selectivity ratio [3]: 5.92
- IC50 at 24 h [4]: 46.9 µM
- IC50 (HeLa [5]): 7.92 µM
- IC50 (HEp-2): 11.2 µM
- IC50 (MCF7 [6]): 8.36 µM
- IC50 (HepG2): 9.85 µM
- selectivity ratio [7]: 4.17
- IC50 (HCT-116): 18.4 µM
- selectivity ratio [8]: 3.27
- selectivity ratio [9]: 5.6
- IC50 [10]: 0.131 µM
- IC50 (Dihydrofolate reductase): 678 nM

SMILES: CC(=O)Nc1nc(C(=O)NNC(=O)CCN2CCCCC2)cs1
- selectivity ratio [1]: 6.43
- IC50 (PC-3): 8.14 µM
- selectivity ratio [2]: 3.37
- Activity (HeLa [11]): 24.39%
- selectivity ratio [3]: 23.9
- Activity (MCF7 [12]): 36.22%
- Activity (HeLa [13]): 2.19%
- Activity (HeLa [14]): 52.72%
- Activity (HeLa [15]): 2.89%
- Activity (HeLa [16]): 45.81%
- IC50 at 24 h [4]: 39.9 µM
- IC50 (HeLa [5]): 1.67 µM
- IC50 (HEp-2): 7.62 µM
- Activity [17]: 29.4 g
- IC50 (MCF7 [6]): 4.87 µM
- Activity (Ehrlich): 72.3%
- IC50 (HepG2): 6.21 µM
- Activity (HeLa [18]): 7.41%
- Activity (MCF7 [19]): 2.19%
- Activity (MCF7 [20]): 22.72%
- Activity (HeLa [21]): 1.55%
- Activity (HeLa [22]): 45.81%
- Activity (MCF7 [23]): 57.43%
- selectivity ratio [7]: 5.24
- Activity (MCF7 [24]): 8.31%
- Activity (MCF7 [25]): 38.66%
- Activity (HeLa [26]): 44.39%
- Activity (MCF7 [27]): 36.22%
- IC50 (HCT-116): 11.8 µM
- selectivity ratio [8]: 4.9
- selectivity ratio [9]: 8.19
- IC50 [10]: 9.2 µM
- Activity [28]: 18.3%
- Activity (MCF7 [29]): 5.19%
- Activity (MCF7 [30]): 1.46%
- Activity (MCF7 [31]): 3.91%
- IC50 (Dihydrofolate reductase): 262 nM
- Activity (HeLa [32]): 14.01%

SMILES: CC(=O)Nc1nc(C(=O)NNC(=O)CCCl)cs1
- IC50 (HeLa [5]): 86.4 µM
- IC50 (HEp-2): 93.2 µM
- IC50 (MCF7 [6]): 69.2 µM

SMILES: CC(=O)NNC(=O)c1csc(NC(C)=O)n1
- IC50 (HeLa [5]): 57.4 µM
- IC50 (HEp-2): 72.1 µM
- IC50 (MCF7 [6]): 49.4 µM
- IC50 (HepG2): 87.2 µM
- IC50 (HCT-116): 69.3 µM

SMILES: CC(=O)Nc1nc(C(=O)NNC(=O)CN2CCN(Cc3ccccc3)CC2)cs1
- IC50 (PC-3): 92.3 µM
- IC50 (HeLa [5]): 52.6 µM
- IC50 (HEp-2): 84.8 µM
- IC50 (MCF7 [6]): 57.7 µM
- IC50 (HepG2): 74.5 µM
- IC50 (HCT-116): 66 µM

SMILES: CC(=O)Nc1nc(C(=O)NNC(=O)CN2CCCCC2)cs1
- selectivity ratio [1]: 4.88
- IC50 (PC-3): 18 µM
- selectivity ratio [2]: 2.47
- selectivity ratio [3]: 4.34
- IC50 at 24 h [4]: 60.5 µM
- IC50 (HeLa [5]): 13.9 µM
- IC50 (HEp-2): 19.7 µM
- IC50 (MCF7 [6]): 16.4 µM
- IC50 (HepG2): 12.4 µM
- selectivity ratio [7]: 3.07
- IC50 (HCT-116): 24.5 µM
- selectivity ratio [8]: 3.35
- selectivity ratio [9]: 3.68

SMILES: CC(=O)Nc1nc(C(=O)NNC(=O)CN2CCOCC2)cs1
- selectivity ratio [1]: 1.79
- IC50 (PC-3): 29.8 µM
- selectivity ratio [2]: 1.41
- selectivity ratio [3]: 2.42
- IC50 at 24 h [4]: 37.2 µM
- IC50 (HeLa [5]): 15.5 µM
- IC50 (HEp-2): 17.2 µM
- IC50 (MCF7 [6]): 13.6 µM
- IC50 (HepG2): 20.8 µM
- selectivity ratio [7]: 2.17
- IC50 (HCT-116): 26.4 µM
- selectivity ratio [8]: 1.25
- selectivity ratio [9]: 2.73
